Laboratory results as given in patent US4075341A, “2-Substituted phenyl-5-triazols [5,1-a] isoquinoline compounds” (Gruppo Lepetit S.p.A., priority 1975, dated 1978).

Tested on: carrageenin induced edema
Assay: carrageenin test in rats (anti-inflammatory activity)
Format: in vivo
Settings: Rattus norvegicus, po; 100 mg./kg. p.o.
Text: The anti-inflammatory activity of some inventive compounds was evidenced by means of the carrageenin test in rats.

## NC(=O)Nc1nc2n(n1)CCc1ccccc1-2 [Example 54, 2-Ureido-5,6-dihydro-s-triazolo[5,1-a]isoquinoline]
  inhibition at 100 mg/kg: ~35%
